Reference: the kinase profiling compilation of Christmann-Franck et al. (2016)
Blank lines part the entries; values can stand above or below the molecule they belong to.

Key:
Experiment in all cases: radiometric filter-binding kinase assay, Kinase HotSpot
Details in all cases: compound 0.5 µM; ATP 10 µM
PRKG2 (human) = PRKG2 (human) (UniProt Q13237)
CDK5 CDK5R1 p35 (human) = CDK5 CDK5R1 p35 (human) (UniProt Q00535+Q15078)
ALK (human) = ALK (human) (UniProt Q9UM73)
MAPKAPK5 (human) = MAPKAPK5 (human) (UniProt Q8IW41)
PRKCD (human) = PRKCD (human) (UniProt Q05655)
MAPK13 (human) = MAPK13 (human) (UniProt O15264)
[1] = biological target: JAK1 JH1 catalytic (human) (UniProt P23458)
FGR (human) = FGR (human) (UniProt P09769)
EPHA8 (human) = EPHA8 (human) (UniProt P29322)
FES (human) = FES (human) (UniProt P07332)
YES1 (human) = YES1 (human) (UniProt P07947)
MAP3K7 TAB1 (human) = MAP3K7 TAB1 (human) (UniProt O43318+Q15750)
MAPK14 (human) = MAPK14 (human) (UniProt Q16539)
SGK2 (human) = SGK2 (human) (UniProt Q9HBY8)
MARK1 (human) = MARK1 (human) (UniProt Q9P0L2)
PIM1 (human) = PIM1 (human) (UniProt P11309)
DAPK1 (human) = DAPK1 (human) (UniProt P53355)
PIM3 (human) = PIM3 (human) (UniProt Q86V86)
TYRO3 (human) = TYRO3 (human) (UniProt Q06418)
IKBKE (human) = IKBKE (human) (UniProt Q14164)
PRKCH (human) = PRKCH (human) (UniProt P24723)
MUSK (human) = MUSK (human) (UniProt O15146)
FGFR1 (human) = FGFR1 (human) (UniProt P11362)
PLK2 (human) = PLK2 (human) (UniProt Q9NYY3)
PDPK1 (human) = PDPK1 (human) (UniProt O15530)
GSG2 (human) = GSG2 (human) (UniProt Q8TF76)
CLK2 (human) = CLK2 (human) (UniProt P49760)
AURKA (human) = AURKA (human) (UniProt O14965)
TGFBR1 (human) = TGFBR1 (human) (UniProt P36897)
MARK2 (human) = MARK2 (human) (UniProt Q7KZI7)
RPS6KA3 KD1 KD2 (human) = RPS6KA3 KD1 KD2 (human) (UniProt P51812)
PHKG1 (human) = PHKG1 (human) (UniProt Q16816)
FRK (human) = FRK (human) (UniProt P42685)
WNK2 (human) = WNK2 (human) (UniProt Q9Y3S1)
MAPK11 (human) = MAPK11 (human) (UniProt Q15759)
PAK4 (human) = PAK4 (human) (UniProt O96013)
EPHB4 (human) = EPHB4 (human) (UniProt P54760)
MAP4K5 (human) = MAP4K5 (human) (UniProt Q9Y4K4)
PLK3 (human) = PLK3 (human) (UniProt Q9H4B4)
INSR (human) = INSR (human) (UniProt P06213)
GRK5 (human) = GRK5 (human) (UniProt P34947)
PRKCA (human) = PRKCA (human) (UniProt P17252)

Sequence of MAP3K7 TAB1 (human) (O43318 whole entry, looked up): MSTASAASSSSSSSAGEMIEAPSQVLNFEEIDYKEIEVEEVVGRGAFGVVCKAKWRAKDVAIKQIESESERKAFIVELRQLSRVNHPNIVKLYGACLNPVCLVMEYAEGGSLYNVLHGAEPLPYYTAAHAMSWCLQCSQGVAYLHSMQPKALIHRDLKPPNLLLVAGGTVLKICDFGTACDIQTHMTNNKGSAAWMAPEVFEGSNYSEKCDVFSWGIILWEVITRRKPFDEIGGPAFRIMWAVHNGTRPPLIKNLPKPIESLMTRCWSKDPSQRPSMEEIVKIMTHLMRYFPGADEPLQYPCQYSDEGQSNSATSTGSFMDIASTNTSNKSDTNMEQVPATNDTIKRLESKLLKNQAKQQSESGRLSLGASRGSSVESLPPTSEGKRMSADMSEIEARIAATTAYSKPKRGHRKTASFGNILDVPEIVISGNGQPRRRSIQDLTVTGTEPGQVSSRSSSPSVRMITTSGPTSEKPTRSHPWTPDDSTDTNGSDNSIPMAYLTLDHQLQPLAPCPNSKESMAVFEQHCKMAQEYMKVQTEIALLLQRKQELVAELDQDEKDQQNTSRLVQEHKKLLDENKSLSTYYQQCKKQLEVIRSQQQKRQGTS
Sequence of MAP3K7 TAB1 (human) (Q15750 whole entry, looked up): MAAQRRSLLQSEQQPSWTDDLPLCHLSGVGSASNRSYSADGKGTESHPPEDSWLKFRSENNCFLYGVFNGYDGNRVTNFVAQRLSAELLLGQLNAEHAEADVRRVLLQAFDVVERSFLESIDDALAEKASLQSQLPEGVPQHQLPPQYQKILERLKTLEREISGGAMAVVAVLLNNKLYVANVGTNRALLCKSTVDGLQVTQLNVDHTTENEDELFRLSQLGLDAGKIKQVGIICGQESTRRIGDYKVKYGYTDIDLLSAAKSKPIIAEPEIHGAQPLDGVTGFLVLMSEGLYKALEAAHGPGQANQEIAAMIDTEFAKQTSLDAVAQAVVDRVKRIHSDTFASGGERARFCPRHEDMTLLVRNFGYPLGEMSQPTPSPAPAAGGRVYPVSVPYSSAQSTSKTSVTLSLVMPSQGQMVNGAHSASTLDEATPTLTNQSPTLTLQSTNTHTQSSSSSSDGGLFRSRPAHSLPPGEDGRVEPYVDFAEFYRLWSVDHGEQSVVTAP
Sequence of INSR (human) (P06213 whole entry, looked up): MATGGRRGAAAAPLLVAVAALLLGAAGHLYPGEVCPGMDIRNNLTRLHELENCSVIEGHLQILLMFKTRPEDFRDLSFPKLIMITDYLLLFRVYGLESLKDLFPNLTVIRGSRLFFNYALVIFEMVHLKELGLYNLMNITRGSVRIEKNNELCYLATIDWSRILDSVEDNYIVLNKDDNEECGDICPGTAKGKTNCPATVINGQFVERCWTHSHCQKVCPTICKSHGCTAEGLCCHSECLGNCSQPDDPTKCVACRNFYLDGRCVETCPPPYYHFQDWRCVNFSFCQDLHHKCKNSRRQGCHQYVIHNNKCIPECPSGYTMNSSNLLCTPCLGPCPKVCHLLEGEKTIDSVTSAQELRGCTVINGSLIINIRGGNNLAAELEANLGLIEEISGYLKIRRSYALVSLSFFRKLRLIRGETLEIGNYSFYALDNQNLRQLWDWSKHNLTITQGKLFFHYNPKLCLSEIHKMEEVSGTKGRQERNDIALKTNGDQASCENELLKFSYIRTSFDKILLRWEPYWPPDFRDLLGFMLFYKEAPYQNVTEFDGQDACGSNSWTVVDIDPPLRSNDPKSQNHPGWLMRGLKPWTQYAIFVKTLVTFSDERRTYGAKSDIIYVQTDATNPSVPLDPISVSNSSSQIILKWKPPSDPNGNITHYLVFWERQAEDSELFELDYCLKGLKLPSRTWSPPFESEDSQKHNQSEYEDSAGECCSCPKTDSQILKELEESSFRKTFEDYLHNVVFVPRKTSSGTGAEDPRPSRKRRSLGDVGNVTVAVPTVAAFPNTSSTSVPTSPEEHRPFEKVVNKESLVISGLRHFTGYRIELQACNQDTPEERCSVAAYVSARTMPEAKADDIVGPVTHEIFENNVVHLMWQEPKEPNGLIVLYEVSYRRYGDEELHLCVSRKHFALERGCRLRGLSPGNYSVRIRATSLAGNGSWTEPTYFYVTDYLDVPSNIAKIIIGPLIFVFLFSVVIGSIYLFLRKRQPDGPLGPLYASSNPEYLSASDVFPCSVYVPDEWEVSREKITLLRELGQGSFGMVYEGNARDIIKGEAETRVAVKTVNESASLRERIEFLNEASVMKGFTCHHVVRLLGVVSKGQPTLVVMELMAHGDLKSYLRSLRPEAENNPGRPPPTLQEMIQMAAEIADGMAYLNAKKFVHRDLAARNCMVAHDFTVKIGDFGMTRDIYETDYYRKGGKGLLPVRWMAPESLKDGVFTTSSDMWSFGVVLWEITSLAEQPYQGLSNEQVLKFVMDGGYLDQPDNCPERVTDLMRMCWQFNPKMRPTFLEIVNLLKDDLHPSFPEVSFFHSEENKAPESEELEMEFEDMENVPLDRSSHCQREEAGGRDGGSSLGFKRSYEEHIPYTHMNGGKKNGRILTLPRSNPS
Sequence of GSG2 (human) (Q8TF76 whole entry, looked up): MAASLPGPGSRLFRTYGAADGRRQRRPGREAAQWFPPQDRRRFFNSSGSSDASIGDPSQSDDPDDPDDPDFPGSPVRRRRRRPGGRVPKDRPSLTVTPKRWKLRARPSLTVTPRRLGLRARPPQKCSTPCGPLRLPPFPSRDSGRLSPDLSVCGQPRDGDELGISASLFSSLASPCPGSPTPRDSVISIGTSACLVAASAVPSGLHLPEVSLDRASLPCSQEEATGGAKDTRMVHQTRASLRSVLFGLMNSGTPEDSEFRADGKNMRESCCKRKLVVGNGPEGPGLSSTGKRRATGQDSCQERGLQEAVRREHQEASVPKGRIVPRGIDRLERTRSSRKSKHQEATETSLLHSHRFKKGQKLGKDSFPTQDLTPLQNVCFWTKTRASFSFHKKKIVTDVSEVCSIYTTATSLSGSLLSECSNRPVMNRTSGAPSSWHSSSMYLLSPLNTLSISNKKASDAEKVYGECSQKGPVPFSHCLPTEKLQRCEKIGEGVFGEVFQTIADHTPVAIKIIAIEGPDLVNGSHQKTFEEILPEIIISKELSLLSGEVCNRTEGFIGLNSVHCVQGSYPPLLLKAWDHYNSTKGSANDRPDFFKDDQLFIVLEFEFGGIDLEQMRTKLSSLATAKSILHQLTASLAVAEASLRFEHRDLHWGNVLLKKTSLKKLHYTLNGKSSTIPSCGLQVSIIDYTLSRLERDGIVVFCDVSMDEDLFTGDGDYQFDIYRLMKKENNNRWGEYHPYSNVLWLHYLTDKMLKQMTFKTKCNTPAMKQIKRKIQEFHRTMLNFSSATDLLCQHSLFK
Sequence of FGFR1 (human) (P11362 whole entry, looked up): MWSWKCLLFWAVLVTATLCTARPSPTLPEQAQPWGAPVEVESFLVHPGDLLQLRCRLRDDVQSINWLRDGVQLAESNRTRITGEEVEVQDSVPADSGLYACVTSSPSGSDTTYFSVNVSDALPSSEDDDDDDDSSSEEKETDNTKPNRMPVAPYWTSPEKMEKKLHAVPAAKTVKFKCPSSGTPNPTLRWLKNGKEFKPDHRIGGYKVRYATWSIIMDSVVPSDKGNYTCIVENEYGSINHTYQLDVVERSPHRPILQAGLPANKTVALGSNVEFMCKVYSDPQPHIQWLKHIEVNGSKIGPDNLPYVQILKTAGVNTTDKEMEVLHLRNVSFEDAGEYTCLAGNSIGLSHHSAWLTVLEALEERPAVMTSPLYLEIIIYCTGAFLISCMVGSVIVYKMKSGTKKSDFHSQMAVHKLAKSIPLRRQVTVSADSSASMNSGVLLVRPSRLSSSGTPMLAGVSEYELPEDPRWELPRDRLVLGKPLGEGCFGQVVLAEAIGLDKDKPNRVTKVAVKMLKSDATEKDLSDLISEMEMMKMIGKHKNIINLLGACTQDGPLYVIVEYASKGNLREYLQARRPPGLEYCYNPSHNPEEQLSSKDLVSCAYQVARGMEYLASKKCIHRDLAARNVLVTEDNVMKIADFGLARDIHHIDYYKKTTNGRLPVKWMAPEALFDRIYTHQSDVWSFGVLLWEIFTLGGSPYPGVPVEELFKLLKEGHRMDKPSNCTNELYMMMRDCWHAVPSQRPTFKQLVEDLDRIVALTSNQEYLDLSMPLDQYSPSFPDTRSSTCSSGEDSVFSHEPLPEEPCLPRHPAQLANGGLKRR
Sequence of PDPK1 (human) (O15530 whole entry, looked up): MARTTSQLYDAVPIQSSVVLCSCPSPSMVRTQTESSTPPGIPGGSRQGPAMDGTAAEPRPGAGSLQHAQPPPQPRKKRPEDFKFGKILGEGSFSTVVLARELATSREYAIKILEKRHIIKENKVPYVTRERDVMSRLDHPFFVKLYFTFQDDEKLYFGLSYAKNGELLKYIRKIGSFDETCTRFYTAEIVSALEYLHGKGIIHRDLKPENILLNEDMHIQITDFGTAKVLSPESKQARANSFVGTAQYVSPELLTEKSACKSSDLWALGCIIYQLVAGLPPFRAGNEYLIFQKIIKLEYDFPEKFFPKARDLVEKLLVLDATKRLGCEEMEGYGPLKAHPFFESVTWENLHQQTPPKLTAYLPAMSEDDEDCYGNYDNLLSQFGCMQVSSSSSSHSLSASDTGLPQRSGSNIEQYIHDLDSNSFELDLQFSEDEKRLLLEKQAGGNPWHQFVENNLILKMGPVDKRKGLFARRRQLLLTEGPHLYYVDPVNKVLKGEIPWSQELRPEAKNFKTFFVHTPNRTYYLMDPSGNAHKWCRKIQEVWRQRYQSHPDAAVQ
Sequence of MAPK13 (human) (O15264 whole entry, looked up): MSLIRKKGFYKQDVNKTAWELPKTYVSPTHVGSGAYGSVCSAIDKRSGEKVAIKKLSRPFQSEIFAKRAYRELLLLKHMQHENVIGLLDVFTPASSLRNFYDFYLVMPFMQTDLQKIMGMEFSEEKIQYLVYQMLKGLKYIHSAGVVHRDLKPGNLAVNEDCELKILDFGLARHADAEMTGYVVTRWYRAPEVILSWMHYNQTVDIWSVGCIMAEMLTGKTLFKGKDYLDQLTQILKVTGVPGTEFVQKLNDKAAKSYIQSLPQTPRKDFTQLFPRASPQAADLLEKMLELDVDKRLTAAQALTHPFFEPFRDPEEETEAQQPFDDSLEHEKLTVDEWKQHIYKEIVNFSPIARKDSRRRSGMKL

residual activity (PRKG2 (human)): 69.1%
residual activity (CDK5 CDK5R1 p35 (human)): 12.4%
residual activity (ALK (human)): 88.5%
residual activity (MAPKAPK5 (human)): 82.7%
residual activity (PRKCD (human)): 103%
residual activity (MAPK13 (human)): 87.5%
residual activity [1]: 76.2%
residual activity (FGR (human)): 2.99%
residual activity (EPHA8 (human)): 97.6%
residual activity (FES (human)): 96%
residual activity (YES1 (human)): 15.8%
residual activity (MAP3K7 TAB1 (human)): 79.3%
residual activity (MAPK14 (human)): 105%
residual activity (SGK2 (human)): 73%
residual activity (MARK1 (human)): 64.2%
residual activity (PIM1 (human)): 96.1%
residual activity (DAPK1 (human)): 90%
residual activity (PIM3 (human)): 73.2%
residual activity (TYRO3 (human)): 81.6%
residual activity (IKBKE (human)): 66.3%
residual activity (PRKCH (human)): 78.6%
residual activity (MUSK (human)): 84.5%
residual activity (FGFR1 (human)): 45.1%
residual activity (PLK2 (human)): 98.9%
residual activity (PDPK1 (human)): 86.4%
residual activity (GSG2 (human)): 95.9%
residual activity (CLK2 (human)): 91.9%
residual activity (AURKA (human)): 17.1%
residual activity (TGFBR1 (human)): 99.8%
residual activity (MARK2 (human)): 61.8%
residual activity (RPS6KA3 KD1 KD2 (human)): 65.7%
residual activity (PHKG1 (human)): 41.8%
residual activity (FRK (human)): 23.2%
residual activity (WNK2 (human)): 104%
residual activity (MAPK11 (human)): 99.6%
residual activity (PAK4 (human)): 95.3%
residual activity (EPHB4 (human)): 78.5%
residual activity (MAP4K5 (human)): 36.5%
residual activity (PLK3 (human)): 95.3%
residual activity (INSR (human)): 92.5%
residual activity (GRK5 (human)): 125%
Structure (SMILES): O=C1Nc2cc(Br)ccc2/C1=C1/Nc2ccccc2/C1=N\O

Structure (SMILES): CC(C)(C)c1nc2c3ccc(F)cc3c3c(=O)[nH]ccc3c2[nH]1
residual activity (PRKG2 (human)): 14.3%
residual activity (ALK (human)): 20%
residual activity (MAPKAPK5 (human)): 88.1%
residual activity (PRKCD (human)): 43.6%
residual activity (MAPK13 (human)): 104%
residual activity [1]: 2.54%
residual activity (FGR (human)): 76.9%
residual activity (EPHA8 (human)): 105%
residual activity (FES (human)): 78%
residual activity (YES1 (human)): 76.1%
residual activity (MAP3K7 TAB1 (human)): 46.6%
residual activity (MAPK14 (human)): 93.5%
residual activity (SGK2 (human)): 84.4%
residual activity (MARK1 (human)): 40.2%
residual activity (PIM1 (human)): 38.6%
residual activity (DAPK1 (human)): 3.03%
residual activity (PIM3 (human)): 33.9%
residual activity (TYRO3 (human)): 90.3%
residual activity (IKBKE (human)): 25.4%
residual activity (PRKCH (human)): 81.5%
residual activity (MUSK (human)): 81.7%
residual activity (FGFR1 (human)): 75.8%
residual activity (PLK2 (human)): 92.6%
residual activity (PDPK1 (human)): 27%
residual activity (GSG2 (human)): 67.2%
residual activity (CLK2 (human)): 93.9%
residual activity (AURKA (human)): 22.3%
residual activity (TGFBR1 (human)): 102%
residual activity (MARK2 (human)): 41.5%
residual activity (PHKG1 (human)): 34.5%
residual activity (FRK (human)): 104%
residual activity (WNK2 (human)): 105%
residual activity (MAPK11 (human)): 83.4%
residual activity (PAK4 (human)): 105%
residual activity (EPHB4 (human)): 88.2%
residual activity (MAP4K5 (human)): 65.8%
residual activity (PLK3 (human)): 11%
residual activity (INSR (human)): 80.6%
residual activity (GRK5 (human)): 72.9%
residual activity (PRKCA (human)): 65.6%

Structure (SMILES): CS(=O)c1ccc(-c2nc(-c3ccc(F)cc3)c(-c3ccncc3)[nH]2)cc1 (stereo not given)
residual activity (PRKG2 (human)): 92.7%
residual activity (CDK5 CDK5R1 p35 (human)): 97.3%
residual activity (ALK (human)): 105%
residual activity (MAPKAPK5 (human)): 92.5%
residual activity (PRKCD (human)): 107%
residual activity (MAPK13 (human)): 106%
residual activity [1]: 105%
residual activity (FGR (human)): 92.7%
residual activity (EPHA8 (human)): 101%
residual activity (FES (human)): 97.3%
residual activity (YES1 (human)): 92.6%
residual activity (MAP3K7 TAB1 (human)): 94%
residual activity (SGK2 (human)): 106%
residual activity (MARK1 (human)): 105%
residual activity (PIM1 (human)): 103%
residual activity (DAPK1 (human)): 90.3%
residual activity (PIM3 (human)): 98.1%
residual activity (TYRO3 (human)): 97%
residual activity (IKBKE (human)): 98%
residual activity (MUSK (human)): 90.3%
residual activity (FGFR1 (human)): 90.7%
residual activity (PLK2 (human)): 95.6%
residual activity (PDPK1 (human)): 96.3%
residual activity (GSG2 (human)): 88.3%
residual activity (CLK2 (human)): 108%
residual activity (AURKA (human)): 99.5%
residual activity (TGFBR1 (human)): 101%
residual activity (MARK2 (human)): 99.1%
residual activity (RPS6KA3 KD1 KD2 (human)): 95.7%
residual activity (PHKG1 (human)): 94.1%
residual activity (FRK (human)): 87.2%
residual activity (WNK2 (human)): 103%
residual activity (MAPK11 (human)): 68.9%
residual activity (EPHB4 (human)): 91.1%
residual activity (MAP4K5 (human)): 99.5%
residual activity (PLK3 (human)): 97.3%
residual activity (INSR (human)): 88.9%
residual activity (GRK5 (human)): 104%
residual activity (PRKCA (human)): 92.3%
